Results on one compound are retold here after ChEMBL document CHEMBL4346716, “Synthesis of novel andrographolide beckmann rearrangement derivatives and evaluation of their HK2-related anti-inflammatory activities” (Eur J Med Chem, 2019).

Each structure is given as a SMILES string. Active and inactive are the calls of the source. No cut-off for these calls is given here.

Data set [1] has as its target T1, Hexokinase-2 (Mus musculus) (UniProt O08528).
T1 sequence (whole entry): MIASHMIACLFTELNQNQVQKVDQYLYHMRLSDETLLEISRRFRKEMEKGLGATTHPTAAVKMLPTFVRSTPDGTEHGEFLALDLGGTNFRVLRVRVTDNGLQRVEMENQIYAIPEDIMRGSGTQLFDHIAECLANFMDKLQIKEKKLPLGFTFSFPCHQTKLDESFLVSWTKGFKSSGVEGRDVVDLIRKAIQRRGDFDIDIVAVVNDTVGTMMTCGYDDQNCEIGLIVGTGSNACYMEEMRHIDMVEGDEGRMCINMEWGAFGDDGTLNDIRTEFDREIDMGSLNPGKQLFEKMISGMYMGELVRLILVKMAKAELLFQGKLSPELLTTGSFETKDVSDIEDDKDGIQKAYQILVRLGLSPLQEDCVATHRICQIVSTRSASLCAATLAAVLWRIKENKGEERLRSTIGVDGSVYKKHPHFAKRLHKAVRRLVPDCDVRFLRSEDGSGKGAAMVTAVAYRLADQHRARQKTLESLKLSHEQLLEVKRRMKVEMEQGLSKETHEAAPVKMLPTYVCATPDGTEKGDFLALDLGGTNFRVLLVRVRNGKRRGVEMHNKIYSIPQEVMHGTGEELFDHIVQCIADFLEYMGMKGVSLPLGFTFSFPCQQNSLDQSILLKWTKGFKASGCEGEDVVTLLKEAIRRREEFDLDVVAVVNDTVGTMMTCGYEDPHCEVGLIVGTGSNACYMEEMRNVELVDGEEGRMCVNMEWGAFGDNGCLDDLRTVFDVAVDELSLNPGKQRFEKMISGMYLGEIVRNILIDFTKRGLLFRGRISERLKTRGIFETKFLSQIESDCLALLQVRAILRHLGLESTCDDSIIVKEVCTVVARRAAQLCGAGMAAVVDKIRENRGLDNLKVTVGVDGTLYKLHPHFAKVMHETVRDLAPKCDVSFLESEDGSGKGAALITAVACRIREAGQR
The data set can be described thus: Inhibition of HK2 mouse RAW264.7 cells assessed as reduction in LPS-induced glycolysis at 50 uM followed by LPS-stimulation and measured after 4 hrs by seahorse XFe96 analyser based assay. Format: cell-based.

The subject of data set [2] is RAW264.7. The data set can be described thus: Antiinflammatory activity in mouse RAW264.7 cells assessed as inhibition of LPS-induced NO production preincubated for 3 hrs followed by LPS addition measured after 24 hrs by Griess assay. Format: functional, cell-based. (In general: Griess reagent forms a coloured azo dye with nitrite.)
In data set [3] the test system is RAW264.7. The data set is described as follows: Antiinflammatory activity in mouse RAW264.7 cells assessed as reduction in LPS-induced IL-6 production preincubated for 3 hrs followed by LPS addition measured after 24 hrs by ELISA. Format: functional, cell-based. (An ELISA detects its analyte on a solid surface through an enzyme-linked reagent.)
Data set [4] has as its system RAW264.7. The data set is described as follows: Antiinflammatory activity against mouse RAW264.7 cells assessed as inhibition of LPS-induced COX2 protein expression preincubated for 3 hrs followed by LPS addition measured after 24 hrs by Western blot analysis. Format: functional, cell-based.
The target of data set [5] is T2, Hexokinase-2 (Homo sapiens) (UniProt P52789).
T2 sequence (whole entry): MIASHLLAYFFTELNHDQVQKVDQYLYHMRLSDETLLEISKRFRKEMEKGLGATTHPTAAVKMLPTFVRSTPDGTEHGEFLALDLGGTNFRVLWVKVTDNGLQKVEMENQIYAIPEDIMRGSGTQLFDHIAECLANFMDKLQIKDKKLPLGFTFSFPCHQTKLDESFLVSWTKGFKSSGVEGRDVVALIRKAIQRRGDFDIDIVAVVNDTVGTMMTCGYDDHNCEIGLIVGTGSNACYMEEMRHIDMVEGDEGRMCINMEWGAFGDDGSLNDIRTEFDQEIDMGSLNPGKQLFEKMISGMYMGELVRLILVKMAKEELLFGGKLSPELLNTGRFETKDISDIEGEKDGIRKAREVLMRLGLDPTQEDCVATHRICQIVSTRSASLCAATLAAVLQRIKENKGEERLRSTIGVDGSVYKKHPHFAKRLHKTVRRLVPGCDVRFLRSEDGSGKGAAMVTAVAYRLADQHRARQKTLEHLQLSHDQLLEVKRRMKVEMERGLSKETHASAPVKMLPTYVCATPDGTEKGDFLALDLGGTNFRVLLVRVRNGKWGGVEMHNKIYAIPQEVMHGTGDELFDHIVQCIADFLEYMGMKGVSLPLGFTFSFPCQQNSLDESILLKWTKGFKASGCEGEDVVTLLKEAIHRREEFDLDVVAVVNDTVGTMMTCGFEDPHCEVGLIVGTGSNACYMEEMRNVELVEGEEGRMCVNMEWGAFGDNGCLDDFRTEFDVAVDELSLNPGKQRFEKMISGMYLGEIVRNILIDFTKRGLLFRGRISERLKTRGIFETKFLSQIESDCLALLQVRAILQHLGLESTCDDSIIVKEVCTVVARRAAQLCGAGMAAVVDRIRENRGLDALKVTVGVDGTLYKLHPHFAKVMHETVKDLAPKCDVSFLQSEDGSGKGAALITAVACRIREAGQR
The data set is described as follows: Non competitive inhibition of recombinant human HK2 expressed in Escherichia coli BL21(DE3) assessed as decrease in Vmax using ATP as substrate by Lineweaver-Burk double reciprocal plot analysis.

Data set [6] concerns RAW264.7. The data set is described as follows: Antiinflammatory activity in mouse RAW264.7 cells assessed as reduction in LPS-induced IL-1beta production preincubated for 3 hrs followed by LPS addition measured after 24 hrs by ELISA. Format: functional, cell-based.
In data set [7] the target is T3, Hexokinase-2 (Homo sapiens, UniProt P52789).
T3 sequence (P52789 whole entry): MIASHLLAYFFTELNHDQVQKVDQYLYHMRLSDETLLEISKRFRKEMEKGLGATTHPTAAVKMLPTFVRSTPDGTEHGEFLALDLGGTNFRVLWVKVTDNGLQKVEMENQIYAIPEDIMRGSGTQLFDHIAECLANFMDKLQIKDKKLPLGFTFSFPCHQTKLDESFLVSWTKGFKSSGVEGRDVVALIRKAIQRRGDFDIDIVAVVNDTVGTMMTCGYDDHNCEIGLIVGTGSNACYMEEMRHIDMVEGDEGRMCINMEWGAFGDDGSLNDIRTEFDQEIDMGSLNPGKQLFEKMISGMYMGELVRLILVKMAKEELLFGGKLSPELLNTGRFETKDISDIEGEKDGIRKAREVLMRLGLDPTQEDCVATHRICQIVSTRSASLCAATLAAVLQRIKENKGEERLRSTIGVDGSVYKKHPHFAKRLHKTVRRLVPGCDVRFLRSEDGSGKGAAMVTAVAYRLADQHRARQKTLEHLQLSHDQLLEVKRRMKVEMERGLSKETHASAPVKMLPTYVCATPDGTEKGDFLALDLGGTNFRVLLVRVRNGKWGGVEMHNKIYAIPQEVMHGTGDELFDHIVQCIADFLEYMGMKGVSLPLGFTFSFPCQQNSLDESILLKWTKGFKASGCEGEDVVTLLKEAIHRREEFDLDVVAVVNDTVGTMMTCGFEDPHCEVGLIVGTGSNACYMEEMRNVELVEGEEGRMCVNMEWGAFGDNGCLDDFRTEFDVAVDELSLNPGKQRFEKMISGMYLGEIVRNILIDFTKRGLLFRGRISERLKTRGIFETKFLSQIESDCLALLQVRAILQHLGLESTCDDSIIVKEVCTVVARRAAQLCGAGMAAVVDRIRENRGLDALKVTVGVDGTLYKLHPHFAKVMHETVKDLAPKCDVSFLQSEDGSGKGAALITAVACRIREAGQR
The data set can be described thus: Binding affinity to recombinant human HK2 expressed in Escherichia coli BL21(DE3) assessed as dissociation constant measured after 15 mins by microscale thermophoresis assay. On the technique in general: In MST a laser heats a spot of the sample, and binding alters the fluorescence response.

For data set [8], the target named is T3, Hexokinase-2. The data set is described as follows: Inhibition of recombinant human HK2 expressed in Escherichia coli BL21(DE3) using glucose as substrate preincubated for 10 mins followed by substrate addition in presence of ATP by G6PDH/NADP coupled assay.
Data set [9] deals with RAW264.7. The data set can be described thus: Cytotoxicity against mouse RAW264.7 cells assessed as reduction in cell viability up to 100 uM after 24 hrs by MTT assay. The note with it: raw264.7, 24 h. The format is cell-based.
The subject of data set [10] is RAW264.7. The data set can be described thus: Antiinflammatory activity against mouse RAW264.7 cells assessed as inhibition of LPS-induced iNOS protein expression preincubated for 3 hrs followed by LPS addition measured after 24 hrs by Western blot analysis. The format is functional, cell-based.
The test system of data set [11] is RAW264.7. The data set is described as follows: Inhibition of LPS-induced NFkappaB protein expression in mouse RAW264.7 cells at 12.5 to 50 uM preincubated for 3 hrs followed by LPS addition and measured after 24 hrs by Western blot analysis. Format: functional, cell-based.
Data set [12] addresses Transcription factor p65 (Mus musculus) (UniProt Q04207). The data set is described as follows: Inhibition of LPS-stimulated NFkappaB p65 nuclear translocation in mouse RAW264.7 cells at 25 uM pretreated for 2 hrs followed by LPS-stimulation and measured after 12 hrs by DAPI staining based fluorescence microscopic analysis. The format is cell-based.
The target in data set [13] is T2, Hexokinase-2 (Homo sapiens). The data set is described as follows: Non competitive inhibition of recombinant human HK2 expressed in Escherichia coli BL21(DE3) assessed as decrease in Vmax using glucose as substrate by Lineweaver-Burk double reciprocal plot analysis.

Broadly, the IC50 is the concentration that inhibits the measured activity by half. One may read the Kd as a measure of binding affinity in units of concentration.

Sequence of Transcription factor p65 (Mus musculus) (Q04207 whole entry): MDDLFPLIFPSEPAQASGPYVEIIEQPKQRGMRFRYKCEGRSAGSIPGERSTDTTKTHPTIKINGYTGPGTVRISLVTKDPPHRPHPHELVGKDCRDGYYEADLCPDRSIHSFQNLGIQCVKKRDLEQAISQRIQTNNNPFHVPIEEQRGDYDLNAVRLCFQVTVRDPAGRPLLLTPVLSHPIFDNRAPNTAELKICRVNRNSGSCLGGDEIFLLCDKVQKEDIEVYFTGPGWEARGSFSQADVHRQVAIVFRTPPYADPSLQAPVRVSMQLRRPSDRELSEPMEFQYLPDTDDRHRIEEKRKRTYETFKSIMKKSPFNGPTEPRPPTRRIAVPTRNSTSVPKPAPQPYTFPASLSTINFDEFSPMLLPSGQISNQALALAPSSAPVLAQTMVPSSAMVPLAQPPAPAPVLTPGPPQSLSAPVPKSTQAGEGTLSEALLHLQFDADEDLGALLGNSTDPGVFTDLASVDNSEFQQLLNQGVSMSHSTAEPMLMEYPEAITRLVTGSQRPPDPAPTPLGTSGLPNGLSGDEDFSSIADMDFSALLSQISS

In the case of `C=C1CC[C@H]2[C@@](C)(CCC(=O)N[C@@]2(C)COC(=O)CCCC[C@@H]2CCSS2)[C@@H]1/C=C/C1=CCOC1=O`, the inhibition entry (in data set [1]; in the data set with RAW264.7 [11]; in data set [12]) was “Active” each time. The figures for the IC50 in the data set with RAW264.7 [2] and on Hexokinase-2 [8] were 22.4 µM and 9.36 µM, respectively. In addition, the inhibition entry (with RAW264.7 [3]; in the data set on RAW264.7 [4]; in data set [5]; in the data set with RAW264.7 [6]; with RAW264.7 [10]; in data set [13]) was “Dose-dependent effect” throughout. Also, the Kd at Hexokinase-2 [7] worked out at 5.12 µM. In addition, the Activity entry with RAW264.7 [9] is recorded as “Non-Toxic”.
